Results taken from a compilation of properties of binary mixtures (doi:10.1016/j.molliq.2017.08.019).

Assay: xn = mol fraction of the nth substance listed
Details: 100 kPa

Compound: CCCC[n+]1ccn(C)c1.O=S(=O)([O-])C(F)(F)F + CCCC[n+]1ccn(C)c1.F[P-](F)(F)(F)(F)F
- viscosity (293.15 K, x2 = 0): 90.8 mPa·s
- viscosity (293.15 K, x2 = 0.0005): 90.9 mPa·s
- viscosity (293.15 K, x2 = 0.0006): 90.9 mPa·s
- viscosity (293.15 K, x2 = 0.0007): 90.9 mPa·s
- viscosity (293.15 K, x2 = 0.0009): 90.9 mPa·s
- viscosity (293.15 K, x2 = 0.0018): 91 mPa·s
- viscosity (293.15 K, x2 = 0.01): 91.9 mPa·s
- viscosity (293.15 K, x2 = 0.0501): 96.7 mPa·s
- viscosity (293.15 K, x2 = 0.0806): 100.4 mPa·s
- viscosity (293.15 K, x2 = 0.1): 102.9 mPa·s
- viscosity (293.15 K, x2 = 0.3): 132.1 mPa·s
- viscosity (293.15 K, x2 = 0.3999): 149.7 mPa·s
- viscosity (293.15 K, x2 = 0.5002): 169.7 mPa·s
- viscosity (293.15 K, x2 = 0.6): 192.3 mPa·s
- viscosity (293.15 K, x2 = 0.7995): 247 mPa·s
- viscosity (293.15 K, x2 = 0.8997): 280 mPa·s
- viscosity (298.15 K, x2 = 0): 76 mPa·s
- viscosity (298.15 K, x2 = 0.0005): 76 mPa·s
- viscosity (298.15 K, x2 = 0.0006): 76.1 mPa·s
- viscosity (298.15 K, x2 = 0.0009): 76.1 mPa·s
- viscosity (298.15 K, x2 = 0.0061): 76.5 mPa·s
- viscosity (298.15 K, x2 = 0.01): 76.9 mPa·s
- viscosity (298.15 K, x2 = 0.0501): 80.5 mPa·s
- viscosity (298.15 K, x2 = 0.1): 85.3 mPa·s
- viscosity (298.15 K, x2 = 0.15): 90.4 mPa·s
- viscosity (298.15 K, x2 = 0.1999): 95.8 mPa·s
- viscosity (298.15 K, x2 = 0.3): 107.5 mPa·s
- viscosity (298.15 K, x2 = 0.3999): 120.7 mPa·s
- viscosity (298.15 K, x2 = 0.5002): 135.6 mPa·s
- viscosity (298.15 K, x2 = 0.6): 152.2 mPa·s
- viscosity (298.15 K, x2 = 0.7): 170.9 mPa·s
- viscosity (298.15 K, x2 = 0.7995): 191.8 mPa·s
- viscosity (298.15 K, x2 = 0.8997): 215 mPa·s
- viscosity (303.15 K, x2 = 0.0006): 63.6 mPa·s
- viscosity (303.15 K, x2 = 0.0007): 63.6 mPa·s
- viscosity (303.15 K, x2 = 0.0009): 63.7 mPa·s
- viscosity (303.15 K, x2 = 0.0018): 63.7 mPa·s
- viscosity (303.15 K, x2 = 0.0061): 64 mPa·s
- viscosity (303.15 K, x2 = 0.01): 64.3 mPa·s
- viscosity (303.15 K, x2 = 0.0501): 67.1 mPa·s
- viscosity (303.15 K, x2 = 0.15): 74.7 mPa·s
- viscosity (303.15 K, x2 = 0.1999): 78.8 mPa·s
- viscosity (303.15 K, x2 = 0.3): 87.8 mPa·s
- viscosity (303.15 K, x2 = 0.3999): 97.7 mPa·s
- viscosity (303.15 K, x2 = 0.5002): 108.9 mPa·s
- viscosity (303.15 K, x2 = 0.6): 121.3 mPa·s
- viscosity (303.15 K, x2 = 0.7): 135.1 mPa·s
- viscosity (303.15 K, x2 = 0.7995): 150.3 mPa·s
- viscosity (303.15 K, x2 = 0.8997): 167.5 mPa·s
- viscosity (308.15 K, x2 = 0): 51.7 mPa·s
- viscosity (308.15 K, x2 = 0.0005): 51.8 mPa·s
- viscosity (308.15 K, x2 = 0.0006): 51.8 mPa·s
- viscosity (308.15 K, x2 = 0.0007): 51.8 mPa·s
- viscosity (308.15 K, x2 = 0.0009): 51.8 mPa·s
- viscosity (308.15 K, x2 = 0.0018): 51.8 mPa·s
- viscosity (308.15 K, x2 = 0.0061): 52 mPa·s
- viscosity (308.15 K, x2 = 0.01): 52.2 mPa·s
- viscosity (308.15 K, x2 = 0.0501): 54.4 mPa·s
- viscosity (308.15 K, x2 = 0.0806): 56.1 mPa·s
- viscosity (308.15 K, x2 = 0.1): 57.1 mPa·s
- viscosity (308.15 K, x2 = 0.3): 69.7 mPa·s
- viscosity (308.15 K, x2 = 0.3999): 77 mPa·s
- viscosity (308.15 K, x2 = 0.5002): 85.2 mPa·s
- viscosity (308.15 K, x2 = 0.6): 94.1 mPa·s
- viscosity (308.15 K, x2 = 0.7): 104 mPa·s
- viscosity (308.15 K, x2 = 0.7995): 114.8 mPa·s
- viscosity (308.15 K, x2 = 0.8997): 126.9 mPa·s
- viscosity (313.15 K, x2 = 0): 42.11 mPa·s
- viscosity (313.15 K, x2 = 0.0007): 42.14 mPa·s
- viscosity (313.15 K, x2 = 0.0018): 42.17 mPa·s
- viscosity (313.15 K, x2 = 0.0061): 42.34 mPa·s
- viscosity (313.15 K, x2 = 0.01): 42.5 mPa·s
- viscosity (313.15 K, x2 = 0.0501): 44.11 mPa·s
- viscosity (313.15 K, x2 = 0.0806): 45.35 mPa·s
- viscosity (313.15 K, x2 = 0.1): 46.2 mPa·s
- viscosity (313.15 K, x2 = 0.15): 48.4 mPa·s
- viscosity (313.15 K, x2 = 0.3): 55.5 mPa·s
- viscosity (313.15 K, x2 = 0.3999): 60.9 mPa·s
- viscosity (313.15 K, x2 = 0.6): 73.3 mPa·s
- viscosity (313.15 K, x2 = 0.7): 80.4 mPa·s
- viscosity (313.15 K, x2 = 0.8997): 96.7 mPa·s
- viscosity (318.15 K, x2 = 0): 35.18 mPa·s
- viscosity (318.15 K, x2 = 0.0005): 35.2 mPa·s
- viscosity (318.15 K, x2 = 0.0007): 35.2 mPa·s
- viscosity (318.15 K, x2 = 0.0009): 35.21 mPa·s
- viscosity (318.15 K, x2 = 0.0061): 35.36 mPa·s
- viscosity (318.15 K, x2 = 0.01): 35.49 mPa·s
- viscosity (318.15 K, x2 = 0.0501): 36.73 mPa·s
- viscosity (318.15 K, x2 = 0.0806): 37.69 mPa·s
- viscosity (318.15 K, x2 = 0.1): 38.32 mPa·s
- viscosity (318.15 K, x2 = 0.3999): 49.6 mPa·s
- viscosity (318.15 K, x2 = 0.5002): 54.1 mPa·s
- viscosity (318.15 K, x2 = 0.6): 58.9 mPa·s
- viscosity (318.15 K, x2 = 0.7): 64.2 mPa·s
- viscosity (318.15 K, x2 = 0.7995): 70 mPa·s
- viscosity (323.15 K, x2 = 0): 30.02 mPa·s
- viscosity (323.15 K, x2 = 0.0007): 30.03 mPa·s
- viscosity (323.15 K, x2 = 0.0009): 30.04 mPa·s
- viscosity (323.15 K, x2 = 0.0018): 30.05 mPa·s
- viscosity (323.15 K, x2 = 0.0061): 30.15 mPa·s
- viscosity (323.15 K, x2 = 0.01): 30.24 mPa·s
- viscosity (323.15 K, x2 = 0.0501): 31.17 mPa·s
- viscosity (323.15 K, x2 = 0.0806): 32.03 mPa·s
- viscosity (323.15 K, x2 = 0.1): 32.53 mPa·s
- viscosity (323.15 K, x2 = 0.15): 33.86 mPa·s
- viscosity (323.15 K, x2 = 0.1999): 35.27 mPa·s
- viscosity (323.15 K, x2 = 0.3999): 41.49 mPa·s
- viscosity (323.15 K, x2 = 0.5002): 45 mPa·s
- viscosity (323.15 K, x2 = 0.6): 48.8 mPa·s
- viscosity (323.15 K, x2 = 0.7): 52.9 mPa·s
- viscosity (323.15 K, x2 = 0.7995): 57.4 mPa·s
- viscosity (328.15 K, x2 = 0): 26.6 mPa·s
- viscosity (328.15 K, x2 = 0.0005): 26.61 mPa·s
- viscosity (328.15 K, x2 = 0.0006): 26.61 mPa·s
- viscosity (328.15 K, x2 = 0.0007): 26.61 mPa·s
- viscosity (328.15 K, x2 = 0.0009): 26.61 mPa·s
- viscosity (328.15 K, x2 = 0.0018): 26.62 mPa·s
- viscosity (328.15 K, x2 = 0.0061): 26.71 mPa·s
- viscosity (328.15 K, x2 = 0.01): 26.79 mPa·s
- viscosity (328.15 K, x2 = 0.0501): 27.59 mPa·s
- viscosity (328.15 K, x2 = 0.0806): 28.27 mPa·s
- viscosity (328.15 K, x2 = 0.1): 28.7 mPa·s
- viscosity (328.15 K, x2 = 0.3): 33.41 mPa·s
- viscosity (328.15 K, x2 = 0.3999): 36.06 mPa·s
- viscosity (328.15 K, x2 = 0.5002): 38.95 mPa·s
- viscosity (328.15 K, x2 = 0.6): 42.02 mPa·s
- viscosity (328.15 K, x2 = 0.7): 45.35 mPa·s
- viscosity (328.15 K, x2 = 0.7995): 48.9 mPa·s
- viscosity (328.15 K, x2 = 0.8997): 52.8 mPa·s

Compound: CCCC[n+]1ccn(C)c1.F[P-](F)(F)(F)(F)F + CCCC[n+]1ccn(C)c1.O=S(=O)([O-])C(F)(F)F
- viscosity (293.15 K, x1 = 1): 337 mPa·s
- viscosity (298.15 K, x1 = 1): 257 mPa·s
- viscosity (303.15 K, x1 = 1): 197.6 mPa·s
- viscosity (308.15 K, x1 = 1): 148.3 mPa·s
- viscosity (313.15 K, x1 = 1): 112 mPa·s
- viscosity (323.15 K, x1 = 1): 71 mPa·s
- viscosity (328.15 K, x1 = 1): 59.7 mPa·s
